Measurements as given in US20130331347A1, “Treatment of Clostridium Difficile Infection in Patients Undergoing Antibiotic Therapy” (Optimer Pharmaceuticals, Inc., priority 2010, published 2013).

Test system: Clostridium difficile infection (CDI)
Experiment: Concomitant antibiotics (CAs) during CDI treatment: PO fidaxomicin vs PO vancomycin, clinical outcome review
Assay type: in vivo, human
Settings: for Global Cure (clinical cure with no recurrence) / Clinical Cure / Recurrence: per protocol (PP); for Clinical Cure: 10 days of study drug; for Recurrence: CDI recurrence during 4-wk follow-up
Experimental: Administration of concomitant antibiotics (CAs) to subjects during the 10 days of study drug administration (PO Fidaxomicin (FDX 200 mg BID)) vs. (PO Vancomycin (Vanc 125 mg QID)) through 4-wk follow-up period was reviewed. End points were the effect of CAs on clinical cure, CDI recurrence during 4-wk follow-up, and global cure (clinical cure with no recurrence).

[1] = in those who received CAs, in words

SMILES | Global Cure (clinical cure with no recurrence) (CA (concomitant antibiotics)) [%] | Clinical Cure (CA (concomitant antibiotics)) [%] | Recurrence (CA (concomitant antibiotics)) [%] | Global Cure (clinical cure with no recurrence) (No CA) [%] | Clinical Cure (No CA) [%] | Recurrence (No CA) [%] | CDI recurrences compared to Vanc [1] | global cures compared to Vanc [1]
CN[C@H](CC(C)C)C(=O)N[C@H]1C(=O)N[C@@H](CC(N)=O)C(=O)N[C@H]2C(=O)N[C@H]3C(=O)N[C@H](C(=O)N[C@H](C(=O)O)c4cc(O)cc(O)c4-c4cc3ccc4O)[C@H](O)c3ccc(c(Cl)c3)Oc3cc2cc(c3O[C@@H]2O[C@H](CO)[C@@H](O)[C@H](O)[C@H]2O[C@H]2C[C@](C)(N)[C@H](O)[C@H](C)O2)Oc2ccc(cc2Cl)[C@H]1O [Vanc, Vancomycin, reference compound] | 50 | 77 | 40 | 72 | 94 | 18 | – | –
CCc1c(Cl)c(O)c(Cl)c(O)c1C(=O)O[C@H]1[C@H](O)[C@H](OC)[C@H](OC/C2=C\C=C\C[C@H](O)/C(C)=C/[C@H](CC)[C@@H](O[C@@H]3OC(C)(C)[C@@H](OC(=O)C(C)C)[C@H](O)[C@@H]3O)/C(C)=C/C(C)=C/C[C@@H]([C@@H](C)O)OC2=O)O[C@@H]1C [FDX, fidaxomicin] | 72 | 87 | 23 | 79 | 93 | 11 | lower | significantly improved
